For orientation: pIC50 means the IC50 on a negative log10 scale, so that one unit is a factor of ten. The term IC50 denotes the concentration that gives 50% inhibition. A low value points to greater potency.

This note sets out measurements from patent US20240182495A1, “ANTIBACTERIAL COMPOUNDS” (JANSSEN SCIENCES IRELAND UNLIMITED COMPANY, priority 2021, published 2024).

Molecules are shown by their SMILES. Marks after values point to notes of the source that are not given here.

The test system of one test is Mycobacterium tuberculosis strain (EH4.0, GFP-expressing; Test 2: H37Rv). Nature of the test: MIC determination against M. tuberculosis, Test 1 (and/or Test 2). The conditions noted are these: 7 days incubation, fluorescence. It counts as cell-based.
Compound `CCc1nc2nc(C)c(Cl)cn2c1C(=O)NCc1ccc(-c2nc3n(n2)CCN(S(=O)(=O)C(F)(F)F)C3)cc1` [Compound 8] showed a pIC50 of 7.58.
Turning to `CCc1nc2nc(NC)c(Cl)cn2c1C(=O)NCc1ccc(-c2nc3n(n2)CCN(S(=O)(=O)C(F)(F)F)C3)c(F)c1` [Compound 13], the pIC50 is less than 6.301.
Same read-out and setting: in the case of `CCc1nc2cc(Cl)c(C)cn2c1C(=O)NCc1cnc(-c2nc3n(n2)CCN(S(=O)(=O)C(F)(F)F)C3)c(F)c1` [Compound 19] it was 6.48; in that of `CCc1nc2ncc(C)cn2c1C(=O)NC1(c2ccc(-c3nc4n(n3)CCN(S(=O)(=O)C(F)(F)F)C4)cc2)CC1` [Compound 68], <6.3*.
On to `CCc1nc2ncc(C)cn2c1C(=O)NCc1cccc(Cc2nc3n(n2)CCN(S(=O)(=O)C(F)(F)F)C3)c1` [Compound 71], for which the pIC50 is <6.3*.
In turn, `CCc1nc2ncc(C)cn2c1C(=O)NCc1coc(-c2nc3n(n2)CCN(S(=O)(=O)C(F)(F)F)C3)n1` [Compound 72] showed a pIC50 of less than 6.3.

The same test, now with this note: Mycobacterium tuberculosis, H37RV, 168 h, 7 days incubation, fluorescence.
On to `CCc1nc2ccc(Cl)cn2c1C(=O)NCc1ccc(-c2nc3n(n2)CCN(S(=O)(=O)C(F)(F)F)C3)c(F)c1` [Compound 3], for which it took 0.0617 µM to reach half-maximal inhibition (IC50).
For the compound `CCc1nc2ncc(Cl)cn2c1C(=O)NCc1ccc(-c2nc3n(n2)CCN(S(=O)(=O)C(F)(F)F)C3)c(F)c1` [Compound 4], the IC50 was 0.0126 µM.
On the same count and under the same terms, in the case of `O=C(NCc1ccc(-c2nc3n(n2)CCN(S(=O)(=O)C(F)(F)F)C3)c(F)c1)c1c(C(F)F)nc2ccc(Cl)cn12` [Compound 5] it was 0.229 µM; in that of `CCc1nc2cc(C)c(Cl)cn2c1C(=O)NCc1ccc(-c2nc3n(n2)CCN(S(=O)(=O)C(F)(F)F)C3)c(F)c1` [Compound 9], 0.363 µM; in that of `CCc1nc2c(Cl)c(OC)ccn2c1C(=O)NCc1ccc(-c2nc3n(n2)CCN(S(=O)(=O)C(F)(F)F)C3)c(F)c1` [Compound 11], 0.447 µM.
Consider `CCc1nc2cc(OC)c(Cl)cn2c1C(=O)NCc1cnc(-c2nc3n(n2)CCN(S(=O)(=O)C(F)(F)F)C3)c(F)c1` [Compound 16], for which the half-inhibitory concentration (IC50) is 0.501 µM.
Still for that read-out and setting: in the case of `CCc1nc2ncc(F)cn2c1C(=O)NCc1ccc(-c2nc3n(n2)CCN(S(=O)(=O)C(F)(F)F)C3)c(F)c1` [Compound 17] it was 0.195 µM.
Turning to `CCc1nc2nc3c(cn2c1C(=O)NCc1ccc(-c2nc4n(n2)CCN(S(=O)(=O)C(F)(F)F)C4)c(F)c1)CCOC3` [Compound 18], the half-inhibitory concentration (IC50) was 0.151 µM.
Same read-out and setting: in the case of `CCc1nc2cc(C)c(Cl)cn2c1C(=O)NCc1cnc(-c2nc3n(n2)CCN(S(=O)(=O)C(F)(F)F)C3)c(F)c1` [Compound 20] it was 0.501 µM.
`CCc1nc2c(F)cc(Cl)cn2c1C(=O)NCc1ccc(-c2nc3n(n2)CCN(S(=O)(=O)C(F)(F)F)C3)cc1` [Compound 21] had a 50% inhibitory concentration (IC50) of 0.0407 µM. This IC50 lies about 12-fold lower than the previous one.
Take `CCc1nc2ccc(F)cn2c1C(=O)NCc1ccc(-c2nc3n(n2)CCN(S(=O)(=O)C(F)(F)F)C3)cc1` [Compound 22]: 0.0447 µM corresponded to half-maximal inhibition (IC50).
`CCc1nc2cc(C)c(C)cn2c1C(=O)NCc1ccc(-c2nc3n(n2)CCN(S(=O)(=O)C(F)(F)F)C3)cc1` [Compound 23] gave a concentration for half-maximal inhibition (IC50) of 0.0324 µM.
As for `CCc1nc2cc(Cl)c(C)cn2c1C(=O)NCc1ccc(-c2nc3n(n2)CCN(S(=O)(=O)C(F)(F)F)C3)cc1` [Compound 25], the IC50 is 0.182 µM.
On the same count and under the same terms, next, `CCc1nc2ncc(C(C)C)cn2c1C(=O)NCc1ccc(-c2nc3n(n2)CCN(S(=O)(=O)C(F)(F)F)C3)cc1` [Compound 26]: 0.245 µM; `CCc1nc2ccc(C3CC3)cn2c1C(=O)NCc1ccc(-c2nc3n(n2)CCN(S(=O)(=O)C(F)(F)F)C3)cc1` [Compound 27]: 0.138 µM.
In turn, `CCc1nc2ncc(C3CC3)cn2c1C(=O)NCc1ccc(-c2nc3n(n2)CCN(S(=O)(=O)C(F)(F)F)C3)cc1` [Compound 28] showed an IC50 of 0.0537 µM. This IC50 lies about 2.6-fold lower than the previous one.
Compound `Cc1cnc2nc(C)c(C(=O)NCc3ccc(-c4nc5n(n4)CCN(S(=O)(=O)C(F)(F)F)C5)cc3)n2c1` [Compound 29] had a half-inhibitory concentration (IC50) of 0.0219 µM. Against the preceding compound, the IC50 is about 2.5-fold lower.
Consider `Cc1ccc2nc(C3CC3)c(C(=O)NCc3ccc(-c4nc5n(n4)CCN(S(=O)(=O)C(F)(F)F)C5)cc3)n2c1` [Compound 30], for which half-maximal inhibition (IC50) required 0.0417 µM.
`CCc1nc2n(c1C(=O)NCc1ccc(-c3nc4n(n3)CCN(S(=O)(=O)C(F)(F)F)C4)cc1)CCCC2` [Compound 31] had an IC50 of 0.024 µM.
Compound `Cc1cn2c(C(=O)NCc3ccc(-c4nc5n(n4)CCN(S(=O)(=O)C(F)(F)F)C5)cc3)c(C)nc2s1` [Compound 32] gave an IC50 of 0.0603 µM. Compared with the last compound, the IC50 is about 2.5-fold higher.
Still for that read-out and setting: in the case of `CCc1nc2nc(C)c(C)cn2c1C(=O)NCc1ccc(-c2nc3n(n2)CCN(S(=O)(=O)C(F)(F)F)C3)cc1` [Compound 33] it was 0.0129 µM; in that of `Cc1ccc2nc(C)c(C(=O)NCc3ccc(-c4nc5n(n4)CCN(S(=O)(=O)C(F)(F)F)C5)cc3)n2c1` [Compound 34], 0.0126 µM; in that of `CCc1nc2ccc(C(C)C)cn2c1C(=O)NCc1ccc(-c2nc3n(n2)CCN(S(=O)(=O)C(F)(F)F)C3)cc1` [Compound 35], greater than 0.5 µM.
Take `CCc1nc2sc(C)cn2c1C(=O)NCc1ccc(-c2nc3n(n2)CCN(S(=O)(=O)C(F)(F)F)C3)cc1` [Compound 36]: the IC50 was 0.0162 µM.
The compound `CCc1nc2ncc(C)cn2c1C(=O)NCc1ccc(-c2nc3n(n2)CCNC3)cc1` [Compound 37] showed a half-inhibitory concentration (IC50) of 0.457 µM.
Regarding `Cc1nc2sc(Cl)cn2c1C(=O)NCc1ccc(-c2nc3n(n2)CCN(S(=O)(=O)C(F)(F)F)C3)cc1` [Compound 38], the half-maximal inhibitory concentration (IC50) was 0.282 µM.
For `CCc1nc2sc(Cl)cn2c1C(=O)NCc1ccc(-c2nc3n(n2)CCN(S(=O)(=O)C(F)(F)F)C3)cc1` [Compound 39], the half-inhibitory concentration (IC50) is 0.123 µM.
On to `CCc1nc2ncc(C)cn2c1C(=O)NCc1ccc(-c2nc3n(n2)CCN(C(C)=O)C3)cc1` [Compound 40], for which the concentration for half-maximal inhibition (IC50) is 0.501 µM.
The same measure, in the same setting: in the case of `CCc1nc2ncc(C)cn2c1C(=O)NCc1ccc(-c2nc3n(n2)CCN(S(=O)(=O)N(C)C)C3)cc1` [Compound 41] it was 0.0457 µM.
Compound `CCc1nc2ncc(C)cn2c1C(=O)NCc1ccc(-c2nc3n(n2)CCN(C(=O)C(F)(F)F)C3)cc1` [Compound 43] had an IC50 of 0.282 µM. Against the preceding compound, the IC50 is about 6.2-fold higher.
Still for that read-out and setting: next, `CCc1nc2nc3c(cn2c1C(=O)NCc1ccc(-c2nc4n(n2)CCN(S(=O)(=O)C(F)(F)F)C4)cc1)CCC3` [Compound 45]: 0.0151 µM; `CCc1nc2ccc(C)cn2c1C(=O)NCc1ccc(-c2nc3n(n2)CCN(C(C)=O)C3)cc1` [Compound 46]: 0.282 µM.
Compound `CCc1nc2ccc(C)cn2c1C(=O)NCc1ccc(-c2nc3n(n2)CCN(S(=O)(=O)N2CCCC2)C3)cc1` [Compound 48] had an IC50 of 0.0257 µM.
In turn, `CCc1nc2ncc(C)cn2c1C(=O)NCc1ccc(-c2nc3n(n2)CCN(C)C3)cc1` [Compound 50] had a concentration for half-maximal inhibition (IC50) of 0.17 µM.
The same measure, in the same setting: in the case of `CCc1nc2ccc(C)cn2c1C(=O)NCc1ccc(-c2nc3n(n2)CCN(S(=O)(=O)N(C)C)C3)cc1` [Compound 51] it was 0.0417 µM.
In turn, `CCc1nc2ccc(C)cn2c1C(=O)NCc1ccc(-c2nc3n(n2)CCNC3)cc1` [Compound 52] had an IC50 of 0.209 µM.
In turn, `CCc1nc2ccc(C)cn2c1C(=O)NCc1ccc(-c2nc3n(n2)CCN(C(=O)C(F)(F)F)C3)cc1` [Compound 53] had an IC50 of 0.12 µM. Against the preceding compound, the IC50 is about 1.7-fold lower.
For `CCc1nc2ncc(C)cn2c1C(=O)NCc1ccc(-c2nc3n(n2)CCN(CCOC)C3)cc1` [Compound 54], the 50% inhibitory concentration (IC50) was 0.132 µM.
Still for that read-out and setting: in the case of `CCc1nc2ccc(C)cn2c1C(=O)NCc1ccc(-c2nc3n(n2)CCN(CCOC)C3)cc1` [Compound 55] it was 0.0501 µM; in that of `CCc1nc2ccc(C)cn2c1C(=O)NCc1ccc(-c2nc3n(n2)CCN(C)C3)cc1` [Compound 56], 0.0741 µM; in that of `CCc1nc2ncc(C)cn2c1C(=O)NCc1ccc(-c2nc3n(n2)CCN(S(=O)(=O)C(F)(F)F)C3)s1` [Compound 57], 0.0263 µM.
The same measure, in the same setting: in the case of `CCc1nc2ncc(C)cn2c1C(=O)NCc1ccc(C2CN(c3nc4n(n3)CCN(S(=O)(=O)C(F)(F)F)C4)C2)cc1` [Compound 58] it was 0.123 µM.
`CCc1nc2ncc(C)cn2c1C(=O)NCc1ccc(C2CCN(c3nc4n(n3)CCN(S(=O)(=O)C(F)(F)F)C4)CC2)cc1` [Compound 59] had a 50% inhibitory concentration (IC50) of 0.11 µM. The IC50 values of the last two compounds are within 1.5-fold of each other.
`CCc1nc2ncc(C)cn2c1C(=O)NCc1ccc(N2CCC(c3nc4n(n3)CCN(S(=O)(=O)C(F)(F)F)C4)CC2)cc1` [Compound 60]: the IC50 is 0.0933 µM.
Compound `CCc1nc2ncc(C)cn2c1C(=O)NCc1ccc(-c2nc3n(n2)CCN(CCC#N)C3)cc1` [Compound 61] gave a 50% inhibitory concentration (IC50) of 0.389 µM.
The compound `CCc1nc2ccc(C)cn2c1C(=O)NCc1ccc(-c2nc3n(n2)CCN(CCC#N)C3)cc1` [Compound 62] showed an IC50 of 0.174 µM.
`CCc1nc2n(c1C(=O)NCc1ccc(-c3nc4n(n3)CCN(S(=O)(=O)C(F)(F)F)C4)cc1)CCOC2` [Compound 63] gave an IC50 of 0.191 µM.
For the compound `CCc1nc2ncc(C)cn2c1C(=O)NCc1ncc(-c2nc3n(n2)CCN(S(=O)(=O)C(F)(F)F)C3)s1` [Compound 64], the half-inhibitory concentration (IC50) is 0.132 µM.
`CCc1nc2n(c1C(=O)NCc1ccc(-c3nc4n(n3)CCN(S(=O)(=O)C(F)(F)F)C4)cc1)CCN(C)C2` [Compound 65] showed an IC50 of 0.331 µM. Compared with the last compound, the IC50 is about 2.5-fold higher.
The same measure, in the same setting: next, `CCc1nc2ncc(C)cn2c1C(=O)NCc1cccc(-c2nc3n(n2)CCN(S(=O)(=O)C(F)(F)F)C3)c1` [Compound 67]: 0.162 µM; `CCc1nc2ncc(C)cn2c1C(=O)NCc1ccc(C2CCN(c3nc4n(n3)CCN(S(=O)(=O)C(F)(F)F)C4)C2)cc1` (centres unmarked) [Compound 69]: 0.0151 µM; `CCc1nc2ncc(C)cn2c1C(=O)NCc1ccc(N2CCN(c3nc4n(n3)CCN(S(=O)(=O)C(F)(F)F)C4)CC2)cc1` [Compound 70]: 0.0912 µM.
`CCc1nc2ncc(C)cn2c1C(=O)NCc1csc(-c2nc3n(n2)CCN(S(=O)(=O)C(F)(F)F)C3)n1` [Compound 73] had a 50% inhibitory concentration (IC50) greater than 0.501 µM.
Regarding `CCc1nc2ncc(C)cn2c1C(=O)NCc1cnc(-c2nc3n(n2)CCN(S(=O)(=O)C(F)(F)F)C3)s1` [Compound 74], inhibition was half-maximal at 0.309 µM (IC50). This counts as sub-micromolar.
Consider `CCc1nc2ncc(C)cn2c1C(=O)NCc1nc(-c2nc3n(n2)CCN(S(=O)(=O)C(F)(F)F)C3)cs1` [Compound 75], for which the 50% inhibitory concentration (IC50) was greater than 0.501 µM.
With `CCc1nc2ncc(C)cn2c1C(=O)NCc1nnc(-c2nc3n(n2)CCN(S(=O)(=O)C(F)(F)F)C3)s1` [Compound 76], the IC50 is greater than 0.501 µM.
